In one assay the test system is HSP72 in U2OS cells. As to the kind of experiment: Cell-based ELISA (Cellisa) assay, U2OS cells: inhibition of 17-AAG-induced HSP72. The note with it: Homo sapiens; U2OS cells (Examples 1-168).
Another assay relates to U2OS cells. As to the kind of experiment: Titre Blue cell viability assay, U2OS cells. Format: cell-based. The note with it: Homo sapiens, U2OS.

Consider 29 compounds from US9701664B2, “Fused 1,4-dihydrodioxin derivatives as inhibitors of heat shock transcription factor 1” (Cancer Research Technology Limited, priority 2013, dated 2017).

Structures are written as SMILES.

The term IC50 denotes the midpoint of a concentration-inhibition curve. A low value points to higher potency.

For `Cc1ccc(NC(=O)c2ccc3c(c2)OCCO3)cc1NC(=O)c1ccc(O)cc1` [Example 93, N-(3-(4-hydroxybenzamido)-4-methylphenyl)-2,3-dihydrobenzo[b][1,4]dioxine-6-carboxamide], the IC50 with HSP72 in U2OS cells amounted to 2460 nM; in the assay on U2OS cells, 798 nM.

As to `COc1cc(C(=O)Nc2cc(NC(=O)c3ccc4c(c3)OCCO4)ccc2C)cc2sc(N)nc12` [Example 95, 2-amino-N-(5-(2,3-dihydrobenzo[b][1,4]dioxine-6-carboxamido)-2-methylphenyl)-4-methoxybenzo[d]thiazole-6-carboxamide], the IC50 with HSP72 in U2OS cells was determined as 89 nM; in the assay on U2OS cells, 156 nM.

For the compound `Cc1ccc(NC(=O)c2ccc3c(c2)OCCO3)cc1NC(=O)c1ccnc(-n2cncn2)c1` [Example 96, N-(5-(2,3-dihydrobenzo[b][1,4]dioxine-6-carboxamido)-2-methylphenyl)-2-(1H-1,2,4-triazol-1-yl)isonicotinamide], the IC50 in the assay with HSP72 in U2OS cells amounted to 4440 nM; in the assay on U2OS cells it was 1350 nM.

As for `Cc1ccc(NC(=O)c2ccc3c(c2)OCCO3)cc1NC(=O)c1ccc2[nH]ncc2c1` [Example 97, N-(5-(2,3-dihydrobenzo[b][1,4]dioxine-6-carboxamido)-2-methylphenyl)-1H-indazole-5-carboxamide], the IC50 with HSP72 in U2OS cells came out at 59 nM; with U2OS cells it was 32 nM.

`Cc1cc2cc(C(=O)Nc3cc(NC(=O)c4ccc5c(c4)OCCO5)ccc3C)cnc2[nH]1` [Example 99, N-(5-(2,3-dihydrobenzo[b][1,4]dioxine-6-carboxamido)-2-methylphenyl)-2-methyl-1H-pyrrolo[2,3-b]pyridine-5-carboxamide]: the IC50 in the assay with HSP72 in U2OS cells came to 42 nM; in the assay on U2OS cells, 62 nM.

`Cc1ccc(NC(=O)c2ccc3c(c2)OCCO3)cc1NC(=O)c1cnc2[nH]ccc2c1` [Example 100, N-(5-(2,3-dihydrobenzo[b][1,4]dioxine-6-carboxamido)-2-methylphenyl)-1H-pyrrolo[2,3-b]pyridine-5-carboxamide]: the IC50 in the assay on HSP72 in U2OS cells turned out to be 43 nM; with U2OS cells, 54 nM.

Turning to `Cc1ccc(NC(=O)c2ccc3c(c2)OCCO3)cc1NC(=O)c1ccc(OCc2cscn2)cc1` [Example 101, N-(4-methyl-3-(4-(thiazol-4-ylmethoxy)benzamido)phenyl)-2,3-dihydrobenzo[b][1,4]dioxine-6-carboxamide], the IC50 was found to be 122 nM in the assay on HSP72 in U2OS cells and 59 nM in the assay on U2OS cells.

`Cc1ccc(NC(=O)c2ccc3c(c2)OCCO3)cc1NC(=O)c1ccc2c(c1)CCC(=O)N2` [Example 103, N-(5-(2,3-dihydrobenzo[b][1,4]dioxine-6-carboxamido)-2-methylphenyl)-2-oxo-1,2,3,4-tetrahydroquinoline-6-carboxamide]: the figures for the IC50 in the assay with HSP72 in U2OS cells and in the assay on U2OS cells were 60 nM and 74 nM, respectively.

`Cc1ccc(NC(=O)c2ccc3c(c2)OCCO3)cc1NC(=O)c1ccc(-n2cccn2)cc1` [Example 107, N-(3-(4-(1H-pyrazol-1-yl)benzamido)-4-methylphenyl)-2,3-dihydrobenzo[b][1,4]dioxine-6-carboxamide]: the IC50 amounted to 295 nM in the assay with HSP72 in U2OS cells and 227 nM in the assay with U2OS cells.

`Cc1cc(NCCN(C)C)c2cc(C(=O)Nc3cc(NC(=O)c4ccc5c(c4)OCCO5)ccc3C)ccc2n1` [Example 110, N-(5-(2,3-dihydrobenzo[b][1,4]dioxine-6-carboxamido)-2-methylphenyl)-4-(2-(dimethylamino)ethylamino)-2-methylquinoline-6-carboxamide]: the values for the IC50 with HSP72 in U2OS cells and in the assay with U2OS cells were 410 nM and 168 nM, respectively.

As for `Cc1ccc2cc(C(=O)Nc3cccc(NC(=O)c4ccc5c(c4)OCCO5)c3)ccc2n1` [Example 113, N-(3-(2,3-dihydrobenzo[b][1,4]dioxine-6-carboxamido)phenyl)-2-methylquinoline-6-carboxamide], the results for the IC50 with HSP72 in U2OS cells and in the assay with U2OS cells were 160 nM and 117 nM, respectively.

In the case of `Cc1ccc2cc(C(=O)Nc3cc(NC(=O)c4ccc5c(c4)OCCO5)ccc3C(F)(F)F)ccc2n1` [Example 129, N-(5-(2,3-dihydrobenzo[b][1,4]dioxine-6-carboxamido)-2-(trifluoromethyl)phenyl)-2-methylquinoline-6-carboxamide], the IC50 in the assay with HSP72 in U2OS cells was 344 nM; in the assay on U2OS cells it was 162 nM.

Turning to `Cc1ccc(NC(=O)c2ccc3c(c2)OCO3)cc1NC(=O)c1ccc2ncccc2c1` [Example 131, N-(5-(benzo[d][1,3]dioxole-5-carboxamido)-2-methylphenyl)quinoline-6-carboxamide], the figures for the IC50 with HSP72 in U2OS cells and in the assay on U2OS cells were 171 nM and 74 nM, respectively.

For the compound `CCc1ccc(NC(=O)c2ccc3c(c2)OCCO3)cc1NC(=O)c1ccc2ncccc2c1` [Example 133, N-(5-(2,3-dihydrobenzo[b][1,4]dioxine-6-carboxamido)-2-ethylphenyl)quinoline-6-carboxamide], the IC50 in the assay on HSP72 in U2OS cells is 127 nM; in the assay with U2OS cells, 111 nM.

As for `Cc1ccc(NC(=O)c2cnc3c(c2)OCCO3)cc1NC(=O)c1ccc2nc(OCCN3CCCC3)ccc2c1` [Example 134, N-(4-methyl-3-(2-(2-(pyrrolidin-1-yl)ethoxy)quinoline-6-carboxamido)phenyl)-2,3-dihydro-[1,4]dioxino[2,3-b]pyridine-7-carboxamide], the IC50 amounted to 51 nM with HSP72 in U2OS cells and 49 nM with U2OS cells.

As for `Cc1ccc2cc(C(=O)Nc3cc(NC(=O)c4cnc5c(c4)OCCO5)ccc3C)ccc2n1` [Example 135, N-(4-methyl-3-(2-methylquinoline-6-carboxamido)phenyl)-2,3-dihydro-[1,4]dioxino[2,3-b]pyridine-7-carboxamide], the results for the IC50 in the assay on HSP72 in U2OS cells and with U2OS cells were 27 nM and 29 nM, respectively.

Consider `Cc1ccc(NC(=O)c2ccc3c(c2)OCCO3)cc1NC(=O)c1cc(F)c2ncccc2c1` [Example 136, N-(5-(2,3-dihydrobenzo[b][1,4]dioxine-6-carboxamido)-2-methylphenyl)-8-fluoroquinoline-6-carboxamide], for which the IC50 stood at 14 nM with HSP72 in U2OS cells and 4 nM with U2OS cells.

Take `COCc1ccc2cc(C(=O)Nc3cc(NC(=O)c4ccc5c(c4)OCCO5)ccc3C)ccc2n1` [Example 137, N-(5-(2,3-dihydrobenzo[b][1,4]dioxine-6-carboxamido)-2-methylphenyl)-2-(methoxymethyl)quinoline-6-carboxamide]: the IC50 in the assay with HSP72 in U2OS cells amounted to 15 nM; in the assay with U2OS cells, 26 nM.

Regarding `O=C(Nc1ccc(Br)c(NC(=O)c2ccc3ncccc3c2)c1)c1ccc2c(c1)OCCO2` [Example 138, N-(2-bromo-5-(2,3-dihydrobenzo[b][1,4]dioxine-6-carboxamido)phenyl)quinoline-6-carboxamide], the IC50 in the assay with HSP72 in U2OS cells was determined as 31 nM; in the assay on U2OS cells it was 10 nM.

Regarding `O=C(Nc1ccc(Br)c(NC(=O)c2ccc3nc(OCCN4CCCC4)ccc3c2)c1)c1ccc2c(c1)OCCO2` [Example 139, N-(2-bromo-5-(2,3-dihydrobenzo[b][1,4]dioxine-6-carboxamido)phenyl)-2-(2-(pyrrolidin-1-yl)ethoxy)quinoline-6-carboxamide], the IC50 is 20 nM with HSP72 in U2OS cells and 23 nM with U2OS cells.

As to `N#Cc1ccc(NC(=O)c2ccc3c(c2)OCCO3)cc1NC(=O)c1ccc2ncccc2c1` [Example 140, N-(2-cyano-5-(2,3-dihydrobenzo[b][1,4]dioxine-6-carboxamido)phenyl)quinoline-6-carboxamide], the IC50 was found to be 31 nM with HSP72 in U2OS cells and 34 nM in the assay with U2OS cells.

Turning to `Cc1ccc(NC(=O)c2ccc3c(c2)OCCO3)cc1NC(=O)c1cnc2c(c1)CCCC2` [Example 141, N-(5-(2,3-dihydrobenzo[b][1,4]dioxine-6-carboxamido)-2-methylphenyl)-5,6,7,8-tetrahydroquinoline-3-carboxamide], the IC50 with HSP72 in U2OS cells amounted to 32 nM; with U2OS cells, 44 nM.

Turning to `Cc1ccc(NC(=O)c2ccc3c(c2)OCCO3)cc1NC(=O)c1ccc2c(c1)CCCN2C` [Example 143, N-(5-(2,3-dihydrobenzo[b][1,4]dioxine-6-carboxamido)-2-methylphenyl)-1-methyl-1,2,3,4-tetrahydroquinoline-6-carboxamide], the IC50 came out at 55 nM in the assay on HSP72 in U2OS cells and 26 nM in the assay on U2OS cells.

With `Cc1ccc(NC(=O)c2ccc3c(c2)OCCO3)cc1NC(=O)c1ccc2nc(CCN3CCOCC3)ccc2c1` [Example 144, N-(5-(2,3-dihydrobenzo[b][1,4]dioxine-6-carboxamido)-2-methylphenyl)-2-(2-morpholinoethyl)quinoline-6-carboxamide], the figures for the IC50 with HSP72 in U2OS cells and with U2OS cells were 60 nM and 80 nM, respectively.

Turning to `Cc1ccc(NC(=O)c2ccc3c(c2)OCCO3)cc1NC(=O)c1ccc2nc(COC(C)C)ccc2c1` [Example 145, N-(5-(2,3-dihydrobenzo[b][1,4]dioxine-6-carboxamido)-2-methylphenyl)-2-(isopropoxymethyl)quinoline-6-carboxamide], the IC50 in the assay on HSP72 in U2OS cells came out at 64 nM; in the assay with U2OS cells, 17 nM.

Consider `Cc1ccc(NC(=O)c2ccc3c(c2)OCCO3)cc1NC(=O)c1ccc2nc(COCC3CCCO3)ccc2c1` (stereo not shown) [Example 146, N-(5-(2,3-dihydrobenzo[b][1,4]dioxine-6-carboxamido)-2-methylphenyl)-2-(((tetrahydrofuran-2-yl)methoxy)methyl)quinoline-6-carboxamide], for which the IC50 was 77 nM in the assay on HSP72 in U2OS cells and 20 nM in the assay on U2OS cells.

Regarding `Cc1ccc(NC(=O)c2ccc3c(c2)OCCO3)cc1NC(=O)c1ccc2nc(COCCN3CCCC3)ccc2c1` [Example 147, N-(5-(2,3-dihydrobenzo[b][1,4]dioxine-6-carboxamido)-2-methylphenyl)-2-((2-(pyrrolidin-1-yl)ethoxy)methyl)quinoline-6-carboxamide], the IC50 was found to be 83 nM in the assay on HSP72 in U2OS cells and 54 nM in the assay with U2OS cells.

Consider `Cc1ccc(NC(=O)c2ccc3c(c2)OCCO3)cc1NC(=O)c1cnc2cccc(NCCN3CCCC3)c2c1` [Example 148, N-(5-(2,3-dihydrobenzo[b][1,4]dioxine-6-carboxamido)-2-methylphenyl)-5-((2-(pyrrolidin-1-yl)ethyl)amino)quinoline-3-carboxamide], for which the IC50 with HSP72 in U2OS cells turned out to be 88 nM; with U2OS cells, 104 nM.

`O=C(Nc1ccc(Cl)c(NC(=O)c2ccc3ncccc3c2)c1)c1ccc2c(c1)OCCO2` [Example 149, N-(2-chloro-5-(2,3-dihydrobenzo[b][1,4]dioxine-6-carboxamido)phenyl)quinoline-6-carboxamide]: the IC50 with HSP72 in U2OS cells was found to be 63 nM; with U2OS cells, 20 nM.
